Experiment: xn = mol fraction of the nth substance listed
Details: 97.6 kPa, Liquid; for viscosity: Capillary tube (Ostwald / Ubbelohde) method; for mass density: Vibrating tube method

CCCCCCCC[n+]1ccn(C)c1.[Cl-] [1-methyl-3-octylimidazolium chloride] + c1ccncc1
Details	mass density [kg/m3]	viscosity [mPa·s]
303.15 K, x1 = 0.128	988.9	3.46
303.15 K, x1 = 0.255	998.25	12.71
303.15 K, x1 = 0.339	1000.33	29.41
303.15 K, x1 = 0.445	1002.78	84.05
303.15 K, x1 = 0.578	1004.43	290.77
303.15 K, x1 = 0.755	1005.83	863.91
303.15 K, x1 = 0.865	1005.51	2828.1
303.15 K, x1 = 1	1006.2	7339.7
308.15 K, x1 = 0.128	984.71	3.11
308.15 K, x1 = 0.255	994.55	10.87
308.15 K, x1 = 0.339	996.84	24.13
308.15 K, x1 = 0.445	999.45	65.58
308.15 K, x1 = 0.578	1001.29	215.57
308.15 K, x1 = 0.755	1002.79	599.38
308.15 K, x1 = 0.865	1002.58	1823.5
308.15 K, x1 = 1	1003.33	4272.9
313.15 K, x1 = 0.128	980.51	2.81
313.15 K, x1 = 0.255	990.84	9.39
313.15 K, x1 = 0.339	993.34	20.12
313.15 K, x1 = 0.445	996.14	51.96
313.15 K, x1 = 0.578	998.15	161.31
313.15 K, x1 = 0.755	999.79	426
313.15 K, x1 = 0.865	999.66	1210.7
313.15 K, x1 = 1	1000.48	2766.9
318.15 K, x1 = 0.128	976.31	2.56
318.15 K, x1 = 0.255	987.14	8.17
318.15 K, x1 = 0.339	989.85	16.97
318.15 K, x1 = 0.445	992.85	42.02
318.15 K, x1 = 0.578	995.01	123.18
318.15 K, x1 = 0.755	996.82	309.61
318.15 K, x1 = 0.865	996.75	829.67
318.15 K, x1 = 1	997.64	1788.6
323.15 K, x1 = 0.128	972.1	2.34
323.15 K, x1 = 0.255	983.45	7.17
323.15 K, x1 = 0.339	986.38	14.49
323.15 K, x1 = 0.445	989.57	34.4
323.15 K, x1 = 0.578	991.88	96.06
323.15 K, x1 = 0.755	993.86	230.68
323.15 K, x1 = 0.865	993.8	583.82
323.15 K, x1 = 1	994.82	1198.7
328.15 K, x1 = 0.128	967.86	2.15
328.15 K, x1 = 0.255	979.75	6.34
328.15 K, x1 = 0.339	982.9	12.56
328.15 K, x1 = 0.445	986.28	28.53
328.15 K, x1 = 0.578	988.75	75.98
328.15 K, x1 = 0.755	990.9	174.4
328.15 K, x1 = 0.865	990.92	419.77
328.15 K, x1 = 1	992	828.3
333.15 K, x1 = 0.128	963.58	1.98
333.15 K, x1 = 0.255	976.06	5.65
333.15 K, x1 = 0.339	979.42	10.81
333.15 K, x1 = 0.445	983	23.98
333.15 K, x1 = 0.578	985.64	61.06
333.15 K, x1 = 0.755	987.95	134.84
333.15 K, x1 = 0.865	988.06	309.69
333.15 K, x1 = 1	989.17	588.69
338.15 K, x1 = 0.128	959.29	1.83
338.15 K, x1 = 0.255	972.37	5.06
338.15 K, x1 = 0.339	975.93	9.51
338.15 K, x1 = 0.445	979.67	20.37
338.15 K, x1 = 0.578	982.53	49.81
338.15 K, x1 = 0.755	984.99	–
338.15 K, x1 = 0.865	985.22	233.02
338.15 K, x1 = 1	986.38	426.28
343.15 K, x1 = 0.128	955.03	1.7
343.15 K, x1 = 0.255	968.68	4.56
343.15 K, x1 = 0.339	972.4	8.37
343.15 K, x1 = 0.445	976.42	17.42
343.15 K, x1 = 0.578	979.44	41.06
343.15 K, x1 = 0.755	982.04	84.08
343.15 K, x1 = 0.865	982.37	177.92
343.15 K, x1 = 1	983.63	316.66
348.15 K, x1 = 0.128	950.66	1.58
348.15 K, x1 = 0.255	965	4.13
348.15 K, x1 = 0.339	968.9	7.4
348.15 K, x1 = 0.445	973.05	15.01
348.15 K, x1 = 0.578	976.36	34.18
348.15 K, x1 = 0.755	979.11	68.04
348.15 K, x1 = 0.865	979.56	138.26
348.15 K, x1 = 1	980.88	237.14
353.15 K, x1 = 0.128	946.27	1.48
353.15 K, x1 = 0.255	961.31	3.76
353.15 K, x1 = 0.339	965.27	6.63
353.15 K, x1 = 0.445	969.48	13.03
353.15 K, x1 = 0.578	973.29	28.74
353.15 K, x1 = 0.755	976.18	55.2
353.15 K, x1 = 0.865	976.69	108.95
353.15 K, x1 = 1	978.13	181.41

— the NIST ThermoML archive (doi:10.1021/acs.jced.7b00002)
